Calls of active or inactive are those of the source. No cut-off for these calls is given here.
Legend:
A549 = test: Cytotoxicity against human A549 cells by MTT assay; type: functional, cell-based
[1] = Cytotoxicity against human PANC1 cells by MTT assay; type: functional, cell-based; details: PANC-1
U-251 = test: Cytotoxicity against human U251 cells by MTT assay; type: functional, cell-based
HepG2 [2] = test: Cytotoxicity against human HepG2 cells by MTT assay; type: functional, cell-based
HepG2 [3] = test: Induction of apoptosis in human HepG2 cells assessed as ratio of Bcl2/Bax at 0.625 uM after 72 hrs by western blot analysis; type: functional
HepG2 [4] = test: Cell cycle arrest in human HepG2 cells after 24 hrs by propidium iodide staining based flow cytometric analysis; type: functional
HepG2 [5] = test: Cell cycle arrest in human HepG2 cells at 0.3125 to 1.25 uM by propidium iodide staining based flow cytometric analysis; type: functional; details: TDE = time-dependent effect
HepG2 [6] = test: Induction of apoptosis in human HepG2 cells at […] to 1.25 uM after 48 hrs by annexin V/propidium iodide staining-based flow cytometric analysis relative to control; type: functional, cell-based
HepG2 [7] = test: Induction of apoptosis in human HepG2 cells assessed as ratio of Bcl2/Bax at 1.25 uM after 72 hrs by western blot analysis; type: functional
HepG2 [8] = test: Cell cycle arrest in human HepG2 cells assessed as accumulation at S phase at 0.3125 to 1.25 uM by propidium iodide staining based flow cytometric analysis; type: functional
HepG2 [9] = test: Induction of apoptosis in human HepG2 cells assessed as ratio of Bcl2/Bax at 0.3125 uM after 72 hrs by western blot analysis; type: functional

Compound | IC50 (A549) [nM] | IC50 [1] [nM] | IC50 (U-251) [nM] | IC50 (HepG2 [2]) [nM] | Ratio (HepG2 [3]) | Activity (HepG2 [4]) | Activity (HepG2 [5]) | Activity (HepG2 [6]) | Ratio (HepG2 [7]) | Activity (HepG2 [2]) | Activity (HepG2 [8]) | Ratio (HepG2 [9])
CC(C)=CCC/C(C)=C/Cc1c(O)c(CC=C(C)C)c2c(c1O)C(=O)C1=C[C@H]3C[C@H]4C(C)(C)O[C@](C/C=C(/C)C(=O)OCCCN5CCCCC5)(C3=O)[C@]14O2 | 2540 | 4660 | 8870 | 3590 | – | – | – | – | – | – | – | –
CC(C)=CCC/C(C)=C/Cc1c(O)c(CC=C(C)C)c2c(c1O)C(=O)C1=C[C@H]3C[C@H]4C(C)(C)O[C@](C/C=C(/C)C(=O)OCCN5CCCCC5)(C3=O)[C@]14O2 | 1550 | 1890 | 4930 | 970 | – | – | – | – | – | – | – | –
CC(C)=CCC/C(C)=C/Cc1c(O)c(CC=C(C)C)c2c(c1O)C(=O)C1=C[C@@H]3C[C@@H]4C(C)(C)O[C@@](C/C=C(/C)C(=O)OCCCCN5CCN(C)CC5)(C3=O)[C@@]14O2 | 3230 | 7570 | 17500 | 10800 | – | – | – | – | – | – | – | –
CC(C)=CCC/C(C)=C/Cc1c(O)c(CC=C(C)C)c2c(c1O)C(=O)C1=C[C@H]3C[C@H]4C(C)(C)O[C@](C/C=C(/C)C(=O)OCCN5CCOCC5)(C3=O)[C@]14O2 | 4270 | 1890 | 4930 | 6360 | – | – | – | – | – | – | – | –
CC(C)=CCC/C(C)=C/Cc1c(O)c(CC=C(C)C)c2c(c1O)C(=O)C1=C[C@@H]3C[C@@H]4C(C)(C)O[C@@](C/C=C(/C)C(=O)OCCN5CCN(C)CC5)(C3=O)[C@@]14O2 | 1610 | 2610 | 3450 | 2830 | – | – | – | – | – | – | – | –
CCN(CC)CCCCOC(=O)/C(C)=C\C[C@]12OC(C)(C)[C@@H]3C[C@H](C=C4C(=O)c5c(O)c(C/C=C(\C)CCC=C(C)C)c(O)c(CC=C(C)C)c5O[C@@]431)C2=O | 3180 | 1840 | 4620 | 2410 | – | – | – | – | – | – | – | –
CC(C)=CCC/C(C)=C/Cc1c(O)c(CC=C(C)C)c2c(c1O)C(=O)C1=C[C@H]3C[C@H]4C(C)(C)O[C@](C/C=C(/C)C(=O)OCCCN5CCOCC5)(C3=O)[C@]14O2 | 1300 | 2360 | 3310 | 5790 | – | – | – | – | – | – | – | –
CCN(CC)CCOC(=O)/C(C)=C\C[C@@]12OC(C)(C)[C@H]3C[C@@H](C=C4C(=O)c5c(O)c(C/C=C(\C)CCC=C(C)C)c(O)c(CC=C(C)C)c5O[C@]431)C2=O | 1410 | 2860 | 2650 | 1950 | – | – | – | – | – | – | – | –
CC(C)=CCC/C(C)=C/Cc1c(O)c(CC=C(C)C)c2c(c1O)C(=O)C1=C[C@H]3C[C@H]4C(C)(C)O[C@](C/C=C(/C)C(=O)OCCCN5CCN(CCO)CC5)(C3=O)[C@]14O2 | 1510 | 2520 | 1180 | 2750 | – | – | – | – | – | – | – | –
CC(C)=CCC/C(C)=C/Cc1c(O)c(CC=C(C)C)c2c(c1O)C(=O)C1=C[C@@H]3C[C@@H]4C(C)(C)O[C@@](C/C=C(/C)C(=O)OCCCCN5CCOCC5)(C3=O)[C@@]14O2 | 3170 | 18600 | 21600 | 14400 | – | – | – | – | – | – | – | –
CC(C)=CCC/C(C)=C/Cc1c(O)c(CC=C(C)C)c2c(c1O)C(=O)C1=C[C@@H]3C[C@H]4C(C)(C)O[C@@](C/C=C(/C)C(=O)OCCN5CCN(CCO)CC5)(C3=O)[C@@]14O2 | 2440 | 2510 | 3820 | 3870 | – | – | – | – | – | – | – | –
CC(C)=CCC/C(C)=C/Cc1c(O)c(CC=C(C)C)c2c(c1O)C(=O)C1=C[C@@H]3C[C@@H]4C(C)(C)O[C@@](C/C=C(/C)C(=O)OCCCN5CCN(C)CC5)(C3=O)[C@@]14O2 | 1650 | 450 | 1130 | 980 | 0.478 | Dose-dependent effect | tde | Active | 0.251 | Dose-dependent effect | Active | 0.598
CC(C)=CCC/C(C)=C/Cc1c(O)c(CC=C(C)C)c2c(c1O)C(=O)C1=C[C@@H]3C[C@@H]4C(C)(C)O[C@@](C/C=C(/C)C(=O)OCCCCN5CCCCC5)(C3=O)[C@@]14O2 | 3430 | 4430 | 2780 | 3920 | – | – | – | – | – | – | – | –
CC(C)=CCC/C(C)=C/Cc1c(O)c(CC=C(C)C)c2c(c1O)C(=O)C1=C[C@@H]3C[C@H]4C(C)(C)O[C@@](C/C=C(/C)C(=O)O)(C3=O)[C@@]14O2 [GAMBOGENIC ACID] | 3490 | 4160 | 3220 | 3230 | – | – | – | – | – | – | – | –
CC(C)=CCC/C(C)=C/Cc1c(O)c(CC=C(C)C)c2c(c1O)C(=O)C1=C[C@@H]3C[C@H]4C(C)(C)O[C@@](C/C=C(/C)C(=O)OCCCCN5CCN(CCO)CC5)(C3=O)[C@@]14O2 | 9530 | 790 | 1460 | 570 | – | – | – | – | – | – | – | –
CCN(CC)CCCOC(=O)/C(C)=C\C[C@@]12OC(C)(C)[C@H]3C[C@@H](C=C4C(=O)c5c(O)c(C/C=C(\C)CCC=C(C)C)c(O)c(CC=C(C)C)c5O[C@]431)C2=O | 2940 | 2850 | 2050 | 2640 | – | – | – | – | – | – | – | –

From ChEMBL document CHEMBL3734739, “Synthesis and biological evaluation of novel derivatives of gambogenic acid as anticancer agents” (Medchemcomm, 2015)
